Values of other authors as cited in patent publication US11478445B2, “Method for treating acute myeloid leukemia” (Bionomics Limited, priority 2017, dated 2022).

Columns and labels:
[1] = system: KG1 cells; conditions: Petit et al. 2008, Madlambayan et al. 2010; cited from earlier work
[2] = system: KG1 cells; conditions: Petit et al. 2008; cited from earlier work

Compound | total ROS levels [1] | cell cycle [2]
COc1ccc(/C=C\c2cc(OC)c(OC)c(OC)c2)c(O)c1O [OXi4500, combretastatin-A1] | increase in total ROS levels | –
COc1ccc(/C=C\c2cc(OC)c(OC)c(OC)c2)cc1OP(=O)(O)O [combretastatin-A4-P] | increase in total ROS levels | induces G2/M cell cycle arrest
